# Tested on: A549 (lung cancer)
# Experiment: Evaluation of anticancer action, cell proliferation inhibition (WST-8), A549
# Format: cell-based
# Settings: Homo sapiens, A549, about 72 hours
# Text: The cell proliferation inhibitory effects of a test substance (Compound 3) on various types of cancer cells were examined.
# 1. Measuring Reagent and Analysis Software
# WST-8 Kit (Cat. No. 260-96165 or 260-96162; manufactured by Kishida Chemical Co., Ltd.) for counting cell number
# Software for graph making and measurement of GI50 value: XLfit 5.2 (ID Business Solutions Ltd.)
# 2. Cells and Culture Conditions
# Five types of cells and medium (the following Table) were used. The cells were obtained from the Research Resource Bank of the Human Sciences Foundation.
# On the day when a sample was to be added, the sample was weighed and a medium for each type of cells was added so as to be 500 μg/mL. Sonication was performed while warming at 37° C. for 60 minutes to be dissolved. Then, filtration was performed by a 0.22 m-filter. The 500 μg/mL-solution was diluted with the medium for each type of cells to prepare 200 μg/mL, 60 μg/mL, 20 μg/mL, 6 μg/mL, 2 μg/mL, 0.6 μg/mL and 0.2 μg/mL solutions, which were specified as two-fold concentration test solutions (the final concentrations of the test substance were 250 µg/mL, 100 μg/mL, 30 μg/mL, 10 μg/mL, 3 μg/mL, 1 μg/mL, 0.3 μg/mL, […], respectively). […]
# (8) Absorbance values at 450 nm and 650 nm were measured to calculate O.D. 450 and O.D. 650. […]
# ODdrug-exposed wells: absorbance of a well containing a sample […]
compound,measurement,value
"O=C(Nc1ccc(S(F)(F)(F)(F)F)cc1)c1cc(O)c(O)c(O)c1 [Compound 3, 4-(3,4,5-trihydroxybenzoylamino)pentafluorosulfanylbenzene]",GI50,13.3 µg/mL

# From patent US9682931B2, “Aryloyl(oxy or amino)pentafluorosulfanylbenzene compound, pharmaceutically acceptable salt thereof, and prodrugs thereof” (UBE INDUSTRIES, LTD., priority 2013, dated 2017)
